Measurements published in PubChem BioAssay (NCI).
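Growth conditions: 96-well plates. Treatment: test compound, 48 hours, 5 concentrations. Analysis: linear interpolation between bracketing concentrations; unreached endpoints set to highest concentration. TGI is the concentration that stops growth completely.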

Key:
Experiment in all cases: NCI-60 cell line screen, 48 h
EKVX NSCLC = system: EKVX NSCLC
IGROV1 ovarian = system: IGROV1 ovarian
RXF 393 renal = system: RXF 393 renal
SK-MEL-28 melanoma = system: SK-MEL-28 melanoma
OVCAR-8 ovarian = system: OVCAR-8 ovarian
ACHN renal = system: ACHN renal
NCI-H460 lung = system: NCI-H460 lung
UACC-257 melanoma = system: UACC-257 melanoma
NCI-H23 lung = system: NCI-H23 lung
HL-60(TB) leukemia = system: HL-60(TB) leukemia
CCRF-CEM leukemia = system: CCRF-CEM leukemia
K-562 leukemia = system: K-562 leukemia
NCI-H226 lung = system: NCI-H226 lung
MDA-MB-435 = system: MDA-MB-435
A549 NSCLC = system: A549 NSCLC
A498 renal = system: A498 renal
HCT-116 colon = system: HCT-116 colon
UO-31 renal = system: UO-31 renal
MDA-N = system: MDA-N

Structure (SMILES)	TGI (EKVX NSCLC)	TGI (IGROV1 ovarian)	TGI (RXF 393 renal)	TGI (SK-MEL-28 melanoma)	TGI (OVCAR-8 ovarian)	TGI (ACHN renal)	TGI (NCI-H460 lung)	TGI (UACC-257 melanoma)	TGI (NCI-H23 lung)	TGI (HL-60(TB) leukemia)	TGI (CCRF-CEM leukemia)	TGI (K-562 leukemia)	TGI (NCI-H226 lung)	TGI (MDA-MB-435)	TGI (A549 NSCLC)	TGI (A498 renal)	TGI (HCT-116 colon)	TGI (UO-31 renal)	TGI (MDA-N)
CCCCCCCCCCCCCCCCCCNc1ccn(C2OC(COP(=O)(O)OC3CC(n4cc(F)c(=O)[nH]c4=O)OC3COP(=O)(O)OCC3OC(n4ccc(N)nc4=O)C(O)C3O)C(O)C2O)c(=O)n1 (stereo unspecified)	> 74.6 µM	54.9 µM	> 75.5 µM	> 100 µM	> 51.8 µM	> 100 µM	> 32.7 µM	> 57.3 µM	> 45.7 µM	11.4 µM	3.37 µM	> 100 µM	> 82.2 µM	> 62.5 µM	> 51 µM	> 100 µM	> 60.7 µM	> 51.9 µM	
CCN(CC)C(=C(C(Cl)=C(Cl)Cl)[N+](=O)[O-])N(CC)CC	> 100 µM	> 100 µM	67 µM	> 100 µM	> 100 µM	> 100 µM	> 100 µM	> 100 µM	> 100 µM	> 100 µM	> 100 µM	> 100 µM	> 100 µM		> 100 µM	> 100 µM	> 100 µM	> 100 µM	> 100 µM
COc1ccc2cc(Oc3ccc(Cl)cc3)c(=O)oc2c1	> 100 µM	> 100 µM	> 100 µM	> 100 µM	> 100 µM	> 100 µM	> 100 µM	> 100 µM	> 100 µM	> 100 µM	> 100 µM	> 100 µM	> 100 µM		> 100 µM	> 100 µM	> 100 µM	> 100 µM	> 100 µM
Cc1cc([C@H](C#N)c2nc3ccccc3[nH]2)nc(Cl)n1	> 100 µM	> 100 µM	> 100 µM	> 100 µM	> 100 µM	> 100 µM	63.5 µM	71.4 µM	> 100 µM	> 100 µM	> 100 µM	> 100 µM	> 100 µM	> 100 µM	> 100 µM	> 100 µM	> 100 µM	> 100 µM	
Cc1ccc(-n2cnc3c(N)nc(N)nc32)cc1	> 100 µM	> 100 µM	> 100 µM	> 100 µM	> 100 µM	> 100 µM		> 100 µM	> 100 µM		> 100 µM		> 100 µM	> 100 µM	> 100 µM	> 100 µM	> 100 µM	> 100 µM	> 100 µM
CCOC(=O)CCC(NC(=O)c1ccc(CNc2nc3ccccc3nc2C(=O)OCC)cc1)C(=O)OCC (stereo unspecified)	> 100 µM	> 100 µM		> 100 µM	> 100 µM	> 100 µM			> 100 µM		> 100 µM	> 100 µM	> 100 µM	50.3 µM	> 100 µM	> 100 µM	> 100 µM	> 100 µM	> 100 µM
N=c1oc2ccc([N+](=O)[O-])cc2cc1C(=O)NCc1ccccc1	> 100 µM	30.9 µM	28 µM	35.8 µM	33.2 µM	31.1 µM	> 100 µM	38.2 µM		> 100 µM	> 100 µM	> 100 µM	26.9 µM	49.3 µM	> 100 µM		32 µM	35.8 µM	
O=[n+]1c2ccccc2n([O-])c2ccccc21	> 100 µM	> 100 µM		> 100 µM	> 100 µM	> 100 µM	> 100 µM	> 100 µM	> 100 µM	72.4 µM	> 100 µM	> 100 µM	> 100 µM	> 100 µM	> 100 µM	> 100 µM	> 100 µM	> 100 µM	
CC(C)(C)O/C=C1/C(=O)OC2C[C@@H](O[Si](C)(C)C(C)(C)C)CC12 (stereo partly specified)	> 100 µM	> 100 µM	73.3 µM	> 100 µM	> 100 µM	> 100 µM	> 100 µM	> 100 µM	> 100 µM		88.4 µM		> 100 µM	> 100 µM	> 100 µM	> 100 µM	> 100 µM	> 100 µM	> 100 µM
Cc1oc2c(c1C)S(=O)(=O)C(C#N)C(c1ccccc1)N2 (stereo unspecified)	> 100 µM	> 100 µM		> 100 µM	> 100 µM	> 100 µM	> 100 µM	> 100 µM	> 100 µM		48.2 µM		> 100 µM	> 100 µM	> 100 µM	> 100 µM	> 100 µM	> 100 µM	81.5 µM
CN(C)c1ccc(/C=N\NC(=O)c2ccccc2Nc2ccccc2C(=O)N/N=C/c2ccc(N(C)C)cc2)cc1	> 100 µM	> 100 µM	> 100 µM	> 100 µM	> 100 µM	> 100 µM	> 100 µM	> 100 µM	> 100 µM		> 100 µM	> 100 µM	> 100 µM	> 100 µM	> 100 µM	> 100 µM	> 100 µM	> 100 µM	> 100 µM
CCN(CC)C1Oc2cc3c(cc2C(c2ccc(OC)cc2)C1C)OCO3 (stereo unspecified)	49.9 µM	86.9 µM	40.6 µM	50.8 µM	44.9 µM	59.6 µM	37.2 µM	35.1 µM	51 µM		34 µM	45.9 µM	54.7 µM	39.1 µM	74 µM	48.2 µM	29.2 µM	64.9 µM	65.5 µM
O=C1CC(=O)NC(=NN2C(=O)/C(=C/C(=O)c3ccco3)N=C2c2ccccc2)N1		> 100 µM	> 100 µM	> 100 µM	> 100 µM	> 100 µM	> 100 µM	> 100 µM	> 100 µM		51.7 µM		> 100 µM	> 100 µM	> 100 µM	> 100 µM	> 100 µM	> 100 µM	> 100 µM
CCOC(=O)NNC(=O)C1CSC(c2ccccc2)N1C(C)=O (stereo unspecified)	> 100 µM	> 100 µM			> 100 µM	> 100 µM	> 100 µM	> 100 µM	> 100 µM	> 100 µM	> 100 µM	> 100 µM	> 100 µM	> 100 µM	> 100 µM	> 100 µM	> 100 µM	> 100 µM	
CC1(C)CN=C(c2ccc3c(c2)Cc2cc(C4=NCC(C)(C)N4)ccc2-3)N1	> 100 µM	> 100 µM	> 100 µM	> 100 µM	> 100 µM	> 100 µM	> 100 µM	> 100 µM	> 100 µM		> 100 µM	90.4 µM	> 100 µM	98.9 µM	> 100 µM	> 100 µM	> 100 µM	> 100 µM	> 100 µM
C=C1C(=O)OC2/C=C(\CO)C3OC3C3OC3(C)CC(OC(=O)/C(=C/C)CO)C12 (stereo unspecified)	> 100 µM	> 100 µM	> 100 µM	> 100 µM	> 100 µM	> 100 µM	> 100 µM	> 100 µM	> 100 µM		> 100 µM	65.4 µM	> 100 µM	> 100 µM	> 100 µM	> 100 µM	> 100 µM	> 100 µM	> 100 µM
CNc1c2cccc(C)c2nc2c(C(=O)NCCN(C)C)cccc12	1.33 µM	10.6 µM	0.413 µM	1.17 µM	0.297 µM	0.723 µM	0.206 µM	1.24 µM	0.286 µM			> 100 µM	0.847 µM	0.34 µM	0.331 µM	0.935 µM	0.453 µM	2.49 µM	0.328 µM
CC(=O)O[C@@H]1CC[C@@]2(C)C(CC[C@H]3[C@@H]4CC[C@H]([C@H](C)CCc5nc6ccc(C)cc6[nH]5)[C@@]4(C)CC[C@@H]32)C1 (stereo partly specified)	53.3 µM	19.1 µM	> 100 µM	> 100 µM	> 100 µM	> 100 µM		> 100 µM	> 100 µM		8.47 µM	> 100 µM	48.1 µM	> 100 µM	> 100 µM	> 100 µM	> 100 µM	> 100 µM	
CC(=O)Oc1cc2c(n(C)c1=O)-c1ccccc1C2		> 100 µM	> 100 µM	> 100 µM	> 100 µM	> 100 µM	> 100 µM	> 100 µM	> 100 µM		> 100 µM	> 100 µM	> 100 µM	> 100 µM	> 100 µM	> 100 µM	> 100 µM	> 100 µM	> 100 µM
COC(=O)Nc1nc2ccc(S(=O)(=O)NC(CC(C)C)C(=O)OC)cc2[nH]1 (stereo unspecified)	89.8 µM	6.45 µM	15.9 µM	> 100 µM	> 100 µM	> 100 µM	> 100 µM		> 100 µM	8.04 µM	> 100 µM	> 100 µM	> 100 µM		> 100 µM	28 µM	19.1 µM	> 100 µM	2.18 µM
ClC1(Cl)C(c2ccccc2)C1c1ccccc1 (stereo unspecified)	53.1 µM		37.8 µM	> 100 µM	77.4 µM	89.7 µM	51.2 µM	> 100 µM	76.8 µM			> 100 µM	33.9 µM	68.6 µM	> 100 µM	> 100 µM	> 100 µM	> 100 µM	35.2 µM
